Results taken from patent publication US11312716B2, “9H-pyrrolo-dipyridine derivatives” (UCB Biopharma SRL, priority 2015, dated 2022).

Assays:
rat MAO-A enzyme = rat MAO-A enzyme (Rattus norvegicus (Rat), UniProt P21396); assay: Rat MAO-A binding, competition for [3H]Ro 41-1049 in rat cerebral cortex; details: for inhibition at 0.01 µM: 10 nM [3H]Ro 41-1049, read-out: Rat MAO-A Binding INHIB 10 nM; for inhibition at 0.1 µM: 10 nM [3H]Ro 41-1049, read-out: Rat MAO-A Binding INHIB 100 nM
Procedure: Compound selectivity for Tau protein was assessed as compared to a broad panel of receptors, enzymes and ion channels. Selectivity profiling of 10 μM compounds against a panel of 81 targets (n=1 with data in duplicate) was performed. Compounds affinity for rat MAO-A enzyme was assessed in rat cerebral cortex by competition experiment for 10 nM [^3H]Ro 41-1049 and increasing concentrations of test compounds. Compounds affinity for human MAO-A enzyme (1 μg/assay, Sigma-Aldrich, Diegem, Belgium) was assessed by saturation binding experiment performed as described above with [^3H]compounds.

[1] = Rat brain free fraction (Fu) measurement by equilibrium dialysis; details: male, Sprague-Dawley, brain homogenate (25% w/v in PBS), pH 7.4
Procedure: (§1) The Brain free faction was carried out in duplicate at a single concentration of 1 μM after 4 h of equilibrium dialysis.
(§2) Male Sprague-Dawley Rat (Harlan, Bresso, Italy) brain homogenate were prepared in PBS, pH 7.4 at 25% w/vy using a Precellys 24-dual tissue homogenizer (BERTIN technologies, Montigny-le-Bretonneux, France).
(§3) 350 μL PBS pH 7.4 was loaded in the other chamber of the insert. The Red device reusable base counting insert containing insert with both samples and buffer was sealed and incubated during 4 h at 37° C., 300 rpm, on an orbital shaker.
(§4) At the end of the incubation, all brain samples were diluted 1:1 with PBS and PBS samples were diluted 1:1 with control brain homogenate. All samples were then diluted 1:3 with an internal standard (dextromethorphan 10 ng/mL in acetonitrile, Sigma, St Louis, United states), mixed and centrifuged 5 min at 3000 rpm at 4° C. Supernatant was diluted 1:2 with 0.1% formic acid in water (Biosolve, Dieuze, France) before analysis by LC/MS/MS. The LC system used was an Agilent 1290 (Agilent, Santa Clara, United states) coupled with a API5000 mass spectrometer (ABSciex, Framingham, United states). The software was analyst 1.5.2. (Agilent, Santa Clara, United states), the analytical column was an Aquity UPLC HSS T3 (30×2.1 mm, 1.8 μm, Waters, Saint-Quentin, France) operated at 40° C. Analysis were performed in the gradient described below. Gradient used for LC MS/MS
(§5) The Fu brain (%) was calculated using the following equation Fu brain(%)=(1/(1+((1/((fu homogenate)−1)×D)))×100 Where Fu homogenate=peak area ratio buffer/peak area ratio brain and D=dilution factor of the homogenate.

[2] = brain homogenate
Procedure: as §1, §2, §3, §4, §5

rat MAO-A enzyme, sequence (P21396 whole entry): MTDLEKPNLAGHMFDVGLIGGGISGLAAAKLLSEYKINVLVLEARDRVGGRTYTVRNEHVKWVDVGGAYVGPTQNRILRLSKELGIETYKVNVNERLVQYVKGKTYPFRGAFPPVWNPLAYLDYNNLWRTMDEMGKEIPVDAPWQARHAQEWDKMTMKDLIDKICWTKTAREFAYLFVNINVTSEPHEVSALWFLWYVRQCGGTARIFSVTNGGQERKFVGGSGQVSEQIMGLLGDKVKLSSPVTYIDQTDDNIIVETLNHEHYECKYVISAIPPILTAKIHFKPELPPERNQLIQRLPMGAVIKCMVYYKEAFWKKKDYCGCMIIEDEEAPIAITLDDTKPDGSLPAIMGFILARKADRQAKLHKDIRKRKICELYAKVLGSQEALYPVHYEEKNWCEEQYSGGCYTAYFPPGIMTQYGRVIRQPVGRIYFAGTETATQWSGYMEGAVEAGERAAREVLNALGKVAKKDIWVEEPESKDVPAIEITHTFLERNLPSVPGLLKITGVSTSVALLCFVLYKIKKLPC

CNC(=O)c1ccc(-c2ccc3c(n2)[nH]c2cc(COC)ncc23)cn1 [Example 49, 5-(7-(methoxymethyl)-9H-pyrrolo[2,3-b:4,5-c′]dipyridin-2-yl)-N-methylpicolinamide]
inhibition at 0.01 µM (rat MAO-A enzyme; 10 nM test compound): -9% | inhibition at 0.1 µM (rat MAO-A enzyme; 100 nM test compound): -4%

Cc1cc2[nH]c3nc(-c4ccc(F)nc4)ccc3c2cn1 [Example 45, 2-(6-fluoropyridin-3-yl)-7-methyl-9H-pyrrolo[2,3-b:4,5-c′]dipyridine]
fraction unbound at 4 h, 1 μM [1]: 0.011

COc1cnn(-c2ccc3c(n2)[nH]c2ccncc23)c1 [Example 31, 2-(4-methoxy-1H-pyrazol-1-yl)-9H-pyrrolo[2,3-b:4,5-c′]dipyridine]
fraction unbound at 4 h, 1 μM [1]: 0.007 | inhibition at 0.01 µM (rat MAO-A enzyme; 10 nM test compound): 16% | inhibition at 0.1 µM (rat MAO-A enzyme; 100 nM test compound): 39%

Cc1cc2[nH]c3nc(-c4cnn(C)c4)ccc3c2cn1 [Example 47, 7-methyl-2-(1-methyl-1H-pyrazol-4-yl)-9H-pyrrolo[2,3-b: 4,5-c′]dipyridine]
fraction unbound at 4 h, 1 μM [1]: 0.028 | inhibition at 0.01 µM (rat MAO-A enzyme; 10 nM test compound): -1% | inhibition at 0.1 µM (rat MAO-A enzyme; 100 nM test compound): 10%

CNC(=O)c1ccc(-c2ccc3c(n2)[nH]c2cc(C)ncc23)cn1 [Example 46, N-methyl-5-(7-methyl-9H-pyrrolo[2,3-b:4,5-c′]dipyridin-2-yl)picolinamide]
inhibition at 0.01 µM (rat MAO-A enzyme; 10 nM test compound): 11% | inhibition at 0.1 µM (rat MAO-A enzyme; 100 nM test compound): 12%

c1cc2[nH]c3nc(-c4cn[nH]c4)ccc3c2cn1 [Example 9, 2-(1H-pyrazol-4-yl)-9H-pyrrolo[2,3-b:4,5-c′]dipyridine]
fraction unbound at 4 h, 1 μM [1]: 0.036 | inhibition at 0.01 µM (rat MAO-A enzyme; 10 nM test compound): -5% | inhibition at 0.1 µM (rat MAO-A enzyme; 100 nM test compound): 7%

COc1ncc(-c2ccc3c(n2)[nH]c2ccncc23)cc1F [Example 7, 2-(5-fluoro-6-methoxypyridin-3-yl)-9H-pyrrolo[2,3-b:4,5-c′]dipyridine]
fraction unbound at 4 h, 1 μM [1]: 0.005

COCc1cc2[nH]c3nc(-c4cnn(C)c4)ccc3c2cn1 [Example 50, 7-(methoxymethyl)-2-(1-methyl-1H-pyrazol-4-yl)-9H-pyrrolo[2,3-b: 4,5-c′]dipyridine]
fraction unbound at 4 h, 1 μM [1]: 0.04 | inhibition at 0.01 µM (rat MAO-A enzyme; 10 nM test compound): 1% | inhibition at 0.1 µM (rat MAO-A enzyme; 100 nM test compound): 7%

O=C(NCCF)c1ccc(-c2ccc3c(n2)[nH]c2ccncc23)cn1 [Example 29, N-(2-fluoroethyl)-5-(9H-pyrrolo[2,3-b:4,5-c′]dipyridin-2-yl)picolinamide]
inhibition at 0.01 µM (rat MAO-A enzyme; 10 nM test compound): 8% | inhibition at 0.1 µM (rat MAO-A enzyme; 100 nM test compound): 23%

c1cnc(N2CCN(c3ccc4c(n3)[nH]c3ccncc34)CC2)nc1 [Example 13, 2-(4-(pyrimidin-2-yl)piperazin-1-yl)-9H-pyrrolo[2,3-b:4,5-c′]dipyridine]
fraction unbound at 4 h, 1 μM [1]: 0.011

Cc1cc(-c2ccc3c(n2)[nH]c2ccncc23)n[nH]1 [Example 24, 2-(5-methyl-1H-pyrazol-3-yl)-9H-pyrrolo[2,3-b:4,5-c′]dipyridine]
fraction unbound at 4 h, 1 μM [1]: 0.02 | inhibition at 0.01 µM (rat MAO-A enzyme; 10 nM test compound): 7% | inhibition at 0.1 µM (rat MAO-A enzyme; 100 nM test compound): 9%

Cn1cc(-c2ccc3c(n2)[nH]c2ccncc23)cn1 [Example 4, 2-(1-methyl-1H-pyrazol-4-yl)-9H-pyrrolo[2,3-b:4,5-c′]dipyridine]
fraction unbound at 4 h, 1 μM [1]: 0.075 | inhibition at 0.01 µM (rat MAO-A enzyme; 10 nM test compound): 21% | inhibition at 0.1 µM (rat MAO-A enzyme; 100 nM test compound): 50%

c1cc(N2CCN(c3ccc4c(n3)[nH]c3ccncc34)CC2)ccn1 [Example 14, 2-(4-(pyridin-4-yl)piperazin-1-yl)-9H-pyrrolo[2,3-b:4,5-c′]dipyridine]
fraction unbound at 4 h, 1 μM [1]: 0.019

c1cc2[nH]c3nc(-c4cnc(N5CCOCC5)s4)ccc3c2cn1 [Example 32, 4-(5-(9H-pyrrolo[2,3-b:4,5-c′]dipyridin-2-yl)thiazol-2-yl)morpholine]
fraction unbound at 4 h, 1 μM [1]: 0.005 | inhibition at 0.01 µM (rat MAO-A enzyme; 10 nM test compound): 7% | inhibition at 0.1 µM (rat MAO-A enzyme; 100 nM test compound): 46%

CNC(=O)c1ccc(-c2ccc3c(n2)[nH]c2ccncc23)cn1 [Example 11, N-methyl-5-(9H-pyrrolo[2,3-b:4,5-c′]dipyridin-2-yl)pyridine-2-carboxamide]
fraction unbound at 4 h, 1 μM [1]: 0.028 | inhibition at 0.01 µM (rat MAO-A enzyme; 10 nM test compound): -12% | inhibition at 0.1 µM (rat MAO-A enzyme; 100 nM test compound): -7%

N-methyl-5-(9H-pyrrolo[2,3-b:4,5-c′]dipyridin-7-yl)picolinamide [Example 60]
Fu Rat Brain [2]: 0.5% | Rat MAO-A Binding INHIB 10 nM (rat MAO-A enzyme; 10 nM test compound, 10 nM [3H]Ro 41-1049): −3% | Rat MAO-A Binding INHIB 100 nM (rat MAO-A enzyme; 100 nM test compound, 10 nM [3H]Ro 41-1049): −1%

c1cc2[nH]c3nc(-c4ccn[nH]4)ccc3c2cn1 [Example 15, 2-(1H-pyrazol-3-yl)-9H-pyrrolo[2,3-b:4,5-c′]dipyridine]
fraction unbound at 4 h, 1 μM [1]: 0.056

Oc1ccc(-c2ccc3c(n2)[nH]c2ccncc23)cn1 [Example 6, 5-(9H-pyrrolo[2,3-b:4,5-c′]dipyridin-2-yl)pyridin-2-ol]
fraction unbound at 4 h, 1 μM [1]: 0.098

CNC(=O)c1ccc(-c2ccc3c(n2)[nH]c2cnccc23)cn1 [Example 53, N-methyl-5-(9H-pyrrolo[2,3-b:5,4-c′]dipyridin-2-yl)picolinamide]
fraction unbound at 4 h, 1 μM [1]: 0.015 | inhibition at 0.01 µM (rat MAO-A enzyme; 10 nM test compound): -10% | inhibition at 0.1 µM (rat MAO-A enzyme; 100 nM test compound): -13%

Fc1ccc(-c2ccc3c(n2)[nH]c2cnccc23)cn1 [Example 54, 2-(6-fluoropyridin-3-yl)-9H-pyrrolo[2,3-b:5,4-c′]dipyridine]
fraction unbound at 4 h, 1 μM [1]: 0.019 | inhibition at 0.01 µM (rat MAO-A enzyme; 10 nM test compound): 10% | inhibition at 0.1 µM (rat MAO-A enzyme; 100 nM test compound): 12%

CNc1ccc(-c2ccc3c(n2)[nH]c2cnccc23)cn1 [Example 55, N-methyl-5-(9H-pyrrolo[2,3-b:5,4-c′]dipyridin-2-yl)pyridin-2-amine]
fraction unbound at 4 h, 1 μM [1]: 0.005 | inhibition at 0.01 µM (rat MAO-A enzyme; 10 nM test compound): 6% | inhibition at 0.1 µM (rat MAO-A enzyme; 100 nM test compound): 9%

c1cc2[nH]c3nc(-c4ccc(N5CCOCC5)nc4)ccc3c2cn1 [Example 21, 4-(5-(9H-pyrrolo[2,3-b:4,5-c′]dipyridin-2-yl)pyridin-2-yl)morpholine]
fraction unbound at 4 h, 1 μM [1]: 0.005

FCCn1cc(-c2ccc3c(n2)[nH]c2ccncc23)cn1 [Example 25, 2-[1-(2-fluoroethyl)-1H-pyrazol-4-yl]-9H-pyrrolo[2,3-b: 4,5-c′]dipyridine]
fraction unbound at 4 h, 1 μM [1]: 0.087 | inhibition at 0.01 µM (rat MAO-A enzyme; 10 nM test compound): 13% | inhibition at 0.1 µM (rat MAO-A enzyme; 100 nM test compound): 2%

Nc1ncc(-c2ccc3c(n2)[nH]c2ccncc23)cc1F [Example 12, 3-fluoro-5-(9H-pyrrolo[2,3-b:4,5-c′]dipyridin-2-yl)pyridin-2-amine]
fraction unbound at 4 h, 1 μM [1]: 0.005 | inhibition at 0.01 µM (rat MAO-A enzyme; 10 nM test compound): 8% | inhibition at 0.1 µM (rat MAO-A enzyme; 100 nM test compound): 13%

CN(C)c1cc2[nH]c3nc(-c4cnn(C)c4)ccc3c2cn1 [Example 44, N,N-dimethyl-2-(1-methyl-1H-pyrazol-4-yl)-9H-pyrrolo[2,3-b:4,5-c′]dipyridin-7-amine]
inhibition at 0.01 µM (rat MAO-A enzyme; 10 nM test compound): 2% | inhibition at 0.1 µM (rat MAO-A enzyme; 100 nM test compound): 9%

COc1ccc(-c2ccc3c(n2)[nH]c2ccncc23)cn1 [Example 5, 2-(6-methoxypyridin-3-yl)-9H-pyrrolo[2,3-b:4,5-c′]dipyridine]
fraction unbound at 4 h, 1 μM [1]: 0.006 | inhibition at 0.01 µM (rat MAO-A enzyme; 10 nM test compound): 8% | inhibition at 0.1 µM (rat MAO-A enzyme; 100 nM test compound): 39%

COCCNc1ncc(-c2ccc3c(n2)[nH]c2ccncc23)cn1 [Example 22, N-(2-methoxyethyl)-5-(9H-pyrrolo[2,3-b:4,5-c′]dipyridin-2-yl)pyrimidin-2-amine]
inhibition at 0.01 µM (rat MAO-A enzyme; 10 nM test compound): 8% | inhibition at 0.1 µM (rat MAO-A enzyme; 100 nM test compound): 15%

COCCNC(=O)c1ccc(-c2ccc3c(n2)[nH]c2ccncc23)cn1 [Example 30, N-(2-methoxyethyl)-5-(9H-pyrrolo[2,3-b:4,5-c′]dipyridin-2-yl)picolinamide]
inhibition at 0.01 µM (rat MAO-A enzyme; 10 nM test compound): 2% | inhibition at 0.1 µM (rat MAO-A enzyme; 100 nM test compound): 9%

CNc1ccc(C(=O)Nc2ccc3c(n2)[nH]c2ccncc23)cn1 [Example 35, 6-(methylamino)-N-(9H-pyrrolo[2,3-b:4,5-c′]dipyridin-2-yl)nicotinamide]
fraction unbound at 4 h, 1 μM [1]: 0.005

c1cc2[nH]c3nc(-c4cnc(N5CCOCC5)nc4)ccc3c2cn1 [Example 10, 4-(5-(9H-pyrrolo[2,3-b:4,5-c′]dipyridin-2-yl)pyrimidin-2-yl)morpholine]
fraction unbound at 4 h, 1 μM [1]: 0.011

Cn1cc(-c2ccc3c(n2)[nH]c2cnccc23)cn1 [Example 51, 2-(1-methyl-1H-pyrazol-4-yl)-9H-pyrrolo[2,3-b:5,4-c′]dipyridine]
fraction unbound at 4 h, 1 μM [1]: 0.045 | inhibition at 0.01 µM (rat MAO-A enzyme; 10 nM test compound): 3% | inhibition at 0.1 µM (rat MAO-A enzyme; 100 nM test compound): 6%

COc1cc(-c2ccc3c(n2)[nH]c2ccncc23)ccn1 [Example 2, 2-(2-methoxypyridin-4-yl)-9H-pyrrolo[2,3-b:4,5-c′]dipyridine]
fraction unbound at 4 h, 1 μM [1]: 0.009

c1cc2c(cn1)[nH]c1nc(-c3cn[nH]c3)ccc12 [Example 52, 2-(1H-pyrazol-4-yl)-9H-pyrrolo[2,3-b:5,4-c′]dipyridine]
fraction unbound at 4 h, 1 μM [1]: 0.026

Fc1ccc(-c2ccc3c(n2)[nH]c2ncccc23)cn1 [Example 57, 2-(6-fluoropyridin-3-yl)-9H-pyrrolo[2,3-b:5,4-b′]dipyridine]
fraction unbound at 4 h, 1 μM [1]: 0.013 | inhibition at 0.01 µM (rat MAO-A enzyme; 10 nM test compound): 1% | inhibition at 0.1 µM (rat MAO-A enzyme; 100 nM test compound): 8%

COc1cc2[nH]c3nc(-c4ccc(F)nc4)ccc3c2cn1 [Example 36, 2-(6-fluoropyridin-3-yl)-7-methoxy-9H-pyrrolo[2,3-b:4,5-c′]dipyridine]
fraction unbound at 4 h, 1 μM [1]: 0.005
